This assay concerns the target T1, human β3 adrenergic receptor (Homo sapiens, UniProt P13945).
T1 construct: stably transfected with the cloned β-adrenergic receptor (β1, β2 or β3); expressed in transfected cells; host or cells: Chinese hamster ovary (CHO) cells, stably transfected
The assay can be described thus: Functional assay: cAMP production (LANCE TR-FRET) in CHO cells stably transfected with cloned β3 adrenergic receptor. Conditions: Table 2; cAMP production, CHO cells expressing human β3 AR; read-out: Human β3 functional. In kind it is cell-based. A general note: cAMP levels reflect the balance of adenylyl cyclase and phosphodiesterase activity.

T1 sequence (P13945 whole entry): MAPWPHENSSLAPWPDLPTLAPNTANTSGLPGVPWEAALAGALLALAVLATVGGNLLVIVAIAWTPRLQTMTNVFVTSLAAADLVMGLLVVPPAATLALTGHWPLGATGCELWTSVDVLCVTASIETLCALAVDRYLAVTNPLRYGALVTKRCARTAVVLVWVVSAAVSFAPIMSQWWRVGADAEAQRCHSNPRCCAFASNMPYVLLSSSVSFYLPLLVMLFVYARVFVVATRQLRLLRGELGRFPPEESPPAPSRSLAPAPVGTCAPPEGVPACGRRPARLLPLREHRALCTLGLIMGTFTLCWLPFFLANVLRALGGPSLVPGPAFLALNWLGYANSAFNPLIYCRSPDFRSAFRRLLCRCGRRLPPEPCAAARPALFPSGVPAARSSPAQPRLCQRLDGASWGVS

Turning to `Cc1nc(CC(=O)Nc2ccc(CC3CC[C@H]([C@H](O)c4cccnc4)N3)cc2)c(C)s1` (stereo partly shown) [Example 10], the EC50 was in the range of 11 to 100 nM.
The result for `Cc1nc2ccccc2c(=O)n1CC(=O)Nc1ccc(CC2CC[C@H]([C@H](O)c3cccnc3)N2)cc1` (stereo partly shown) [Example 11] reads 1 to 10 nM.
On to `O=C(Cn1c(=O)ncc2ccccc21)Nc1ccc(CC2CC[C@H]([C@H](O)c3cccnc3)N2)cc1` (stereo partly shown) [Example 13], for which the EC50 lay in the range of 1 to 10 nM.
With `O=C(Cc1ccccn1)Nc1ccc(CC2CC[C@H]([C@H](O)c3cccnc3)N2)cc1` (stereo partly shown) [Example 14], the EC50 was 11 to 100 nM.
For `Cc1nc(CC(=O)Nc2ccc(CC3CC[C@H]([C@H](O)c4cccnc4)N3)cc2)cs1` (stereo partly shown) [Example 15] the value was 11 to 100 nM; for `O=C(Cc1c(-c2ccccc2)[nH]c2ccccc12)Nc1ccc(CC2CC[C@H]([C@H](O)c3cccnc3)N2)cc1` (stereo partly shown) [Example 16], 11 to 100 nM.
For `O=C(Cc1nc2ccccc2[nH]1)Nc1ccc(CC2CC[C@H]([C@H](O)c3cccnc3)N2)cc1` (stereo partly shown) [Example 17], the EC50 was in the range of 11 to 100 nM.
The result for `O=C(Cn1c(-c2ccccc2)nc2ccccc21)Nc1ccc(CC2CC[C@H]([C@H](O)c3cccnc3)N2)cc1` (stereo partly shown) [Example 18] reads 11 to 100 nM; that for `O=C(Cc1c[nH]c2ccccc12)Nc1ccc(CC2CC[C@H]([C@H](O)c3cccnc3)N2)cc1` (stereo partly shown) [Example 19], 1 to 10 nM.
For `Nc1ncn(CC(=O)Nc2ccc(CC3CC[C@H]([C@H](O)c4cccnc4)N3)cc2)n1` (stereo partly shown) [Example 20] the value was 1 to 10 nM; for `Cc1sc2ncn(CC(=O)Nc3ccc(CC4CC[C@H]([C@H](O)c5cccnc5)N4)cc3)c(=O)c2c1C` (stereo partly shown) [Example 21], 1 to 10 nM; for `O=C(Cc1ncccn1)Nc1ccc(CC2CC[C@H]([C@H](O)c3cccnc3)N2)cc1` (stereo partly shown) [Example 22], 11 to 100 nM.
For `Cc1nnc(CC(=O)Nc2ccc(CC3CC[C@H]([C@H](O)c4cccnc4)N3)cc2)[nH]1` (stereo partly shown) [Example 23] the value was 101 to 1000 nM; for `O=C(Cc1nnc(-c2ccc(Cl)cc2)[nH]1)Nc1ccc(CC2CC[C@H]([C@H](O)c3cccnc3)N2)cc1` (stereo partly shown) [Example 24], 11 to 100 nM; for `O=C(Cc1nnc(-c2ccncc2)[nH]1)Nc1ccc(CC2CC[C@H]([C@H](O)c3cccnc3)N2)cc1` (stereo partly shown) [Example 25], 11 to 100 nM.
As for `O=C(Cc1nnc(Cc2ccccc2)[nH]1)Nc1ccc(CC2CC[C@H]([C@H](O)c3cccnc3)N2)cc1` (stereo partly shown) [Example 26], the EC50 lay within 11 to 100 nM.
For `O=C(Cc1nnc(-c2cscn2)[nH]1)Nc1ccc(CC2CC[C@H]([C@H](O)c3cccnc3)N2)cc1` (stereo partly shown) [Example 27] the value was 1 to 10 nM.
For `Cc1cccc(CC(=O)Nc2ccc(CC3CC[C@H]([C@H](O)c4cccnc4)N3)cc2)n1` (stereo partly shown) [Example 28] the value was 101 to 1000 nM.
As for `O=C(Cc1csc(C(F)(F)F)n1)Nc1ccc(CC2CC[C@H]([C@H](O)c3cccnc3)N2)cc1` (stereo partly shown) [Example 29], the EC50 lay in the range of 11 to 100 nM.
For `O=C(Nc1ccc(CC2CC[C@H]([C@H](O)c3cccnc3)N2)cc1)[C@@H]1CCCN1c1nccs1` (stereo partly shown) [Example 30] the value was 1 to 10 nM; for `COc1cccc(N2CCC[C@H]2C(=O)Nc2ccc(CC3CC[C@H]([C@H](O)c4cccnc4)N3)cc2)c1` (stereo partly shown) [Example 31], 1 to 10 nM; for `O=C(Nc1ccc(CC2CC[C@H]([C@H](O)c3cccnc3)N2)cc1)c1ccccc1CCc1ccccc1` (stereo partly shown) [Example 32], 11 to 100 nM.
Consider `O=C(Nc1ccc(CC2CC[C@H]([C@H](O)c3cccnc3)N2)cc1)c1ccccc1-c1ncc[nH]1` (stereo partly shown) [Example 33], for which the EC50 was 11 to 100 nM.
For `O=C(Nc1ccc(CC2CC[C@H]([C@H](O)c3cccnc3)N2)cc1)c1ccccc1-c1nc2ccccc2s1` (stereo partly shown) [Example 34] the value was 11 to 100 nM.
For the compound `O=C(Nc1ccc(CC2CC[C@H]([C@H](O)c3cccnc3)N2)cc1)c1ccccc1-n1nccn1` (stereo partly shown) [Example 35], the EC50 was 11 to 100 nM.
In the case of `O=C(Nc1ccc(CC2CC[C@H]([C@H](O)c3cccnc3)N2)cc1)c1ccccc1C1CCCCC1` (stereo partly shown) [Example 36], the EC50 is 101 to 1000 nM.
Turning to `O=C(Nc1ccc(CC2CC[C@H]([C@H](O)c3cccnc3)N2)cc1)c1ccccc1N1CCCC1` (stereo partly shown) [Example 37], the EC50 lay within 101 to 1000 nM.
The result for `O=C(Cn1cncn1)Nc1ccc(CC2CC[C@H]([C@H](O)c3cccnc3)N2)cc1` (stereo partly shown) [Example 38] reads 11 to 100 nM; that for `O=C(Cn1nccn1)Nc1ccc(CC2CC[C@H]([C@H](O)c3cccnc3)N2)cc1` (stereo partly shown) [Example 39], 11 to 100 nM; that for `O=C(Cn1ccccc1=O)Nc1ccc(CC2CC[C@H]([C@H](O)c3cccnc3)N2)cc1` (stereo partly shown) [Example 40], 1 to 10 nM.
With `O=C(Cc1cnccn1)Nc1ccc(CC2CC[C@H]([C@H](O)c3cccnc3)N2)cc1` (stereo partly shown) [Example 41], the EC50 fell in the range of 11 to 100 nM.
The result for `O=C(CN1CCCCC1=O)Nc1ccc(CC2CC[C@H]([C@H](O)c3cccnc3)N2)cc1` (stereo partly shown) [Example 42] reads 11 to 100 nM.
The result for `O=C(CN1C(=O)CCC1=O)Nc1ccc(CC2CC[C@H]([C@H](O)c3cccnc3)N2)cc1` (stereo partly shown) [Example 43] reads 11 to 100 nM; that for `O=C(CN1CCOC1=O)Nc1ccc(CC2CC[C@H]([C@H](O)c3cccnc3)N2)cc1` (stereo partly shown) [Example 44], 11 to 100 nM; that for `O=C(CN1CCSC1=O)Nc1ccc(CC2CC[C@H]([C@H](O)c3cccnc3)N2)cc1` (stereo partly shown) [Example 45], 1 to 10 nM.
For `Cc1cn(CC(=O)Nc2ccc(CC3CC[C@H]([C@H](O)c4cccnc4)N3)cc2)nn1` (stereo partly shown) [Example 46] the value was 11 to 100 nM; for `O=C(Cc1cncnc1O)Nc1ccc(CC2CC[C@H]([C@H](O)c3cccnc3)N2)cc1` (stereo partly shown) [Example 47], 11 to 100 nM; for `COc1ncncc1CC(=O)Nc1ccc(CC2CC[C@H]([C@H](O)c3cccnc3)N2)cc1` (stereo partly shown) [Example 48], 11 to 100 nM.
For `Nc1ncncc1CC(=O)Nc1ccc(CC2CC[C@H]([C@H](O)c3cccnc3)N2)cc1` (stereo partly shown) [Example 49], the EC50 lay in the range of 11 to 100 nM.
For `CNc1ncncc1CC(=O)Nc1ccc(CC2CC[C@H]([C@H](O)c3cccnc3)N2)cc1` (stereo partly shown) [Example 50] the value was 101 to 1000 nM.
The result for `COc1cc2ncn(CC(=O)Nc3ccc(CC4CC[C@H]([C@H](O)c5cccnc5)N4)cc3)c(=O)c2cc1OC` (stereo partly shown) [Example 51] reads 1 to 10 nM; that for `O=C(Cn1ncccc1=O)Nc1ccc(CC2CC[C@H]([C@H](O)c3cccnc3)N2)cc1` (stereo partly shown) [Example 52], 1 to 10 nM.
For `O=C(Cn1cnccc1=O)Nc1ccc(CC2CC[C@H]([C@H](O)c3cccnc3)N2)cc1` (stereo partly shown) [Example 53] the value was 1 to 10 nM; for `O=C(Nc1ccc(CC2CC[C@H]([C@H](O)c3cccnc3)N2)cc1)c1c[nH]c2cccnc12` (stereo partly shown) [Example 54], 101 to 1000 nM; for `O=C(Cc1nnn[nH]1)Nc1ccc(CC2CC[C@H]([C@H](O)c3cccnc3)N2)cc1` (stereo partly shown) [Example 55], 11 to 100 nM.
For `NC(=O)c1nn(CC(=O)Nc2ccc(CC3CC[C@H]([C@H](O)c4cccnc4)N3)cc2)c(=O)c2ccccc12` (stereo partly shown) [Example 56], the EC50 lay in the range of 1 to 10 nM.
The result for `O=C(Cn1c(=O)[nH]c(=O)c2ccccc21)Nc1ccc(CC2CC[C@H]([C@H](O)c3cccnc3)N2)cc1` (stereo partly shown) [Example 57] reads 1 to 10 nM.
The result for `O=C(Cn1c(=O)cnc2ccccc21)Nc1ccc(CC2CC[C@H]([C@H](O)c3cccnc3)N2)cc1` (stereo partly shown) [Example 58] reads 1 to 10 nM.
For `Cc1cccc2c(=O)n(CC(=O)Nc3ccc(CC4CC[C@H]([C@H](O)c5cccnc5)N4)cc3)cnc12` (stereo partly shown) [Example 59] the value was 1 to 10 nM; for `O=C(Cn1cccnc1=O)Nc1ccc(CC2CC[C@H]([C@H](O)c3cccnc3)N2)cc1` (stereo partly shown) [Example 60], 1 to 10 nM; for `O=C(Cn1ccc(=O)[nH]c1=O)Nc1ccc(CC2CC[C@H]([C@H](O)c3cccnc3)N2)cc1` (stereo partly shown) [Example 61], 1 to 10 nM.
Take `Cc1cn(CC(=O)Nc2ccc(CC3CC[C@H]([C@H](O)c4cccnc4)N3)cc2)c(=O)[nH]c1=O` (stereo partly shown) [Example 62]: the EC50 was in the range of 11 to 100 nM.
The result for `O=C(Cn1ccncc1=O)Nc1ccc(CC2CC[C@H]([C@H](O)c3cccnc3)N2)cc1` (stereo partly shown) [Example 63] reads 11 to 100 nM; that for `O=C(Cn1c(=O)[nH]c2ccccc2c1=O)Nc1ccc(CC2CC[C@H]([C@H](O)c3cccnc3)N2)cc1` (stereo partly shown) [Example 65], 1 to 10 nM.
The result for `O=C(Cn1nc(Cl)ccc1=O)Nc1ccc(CC2CC[C@H]([C@H](O)c3cccnc3)N2)cc1` (stereo partly shown) [Example 66] reads 11 to 100 nM.
For `O=C(Cn1[nH]c(=O)c2ccccc2c1=O)Nc1ccc(CC2CC[C@H]([C@H](O)c3cccnc3)N2)cc1` (stereo partly shown) [Example 67] the value was 11 to 100 nM.
Regarding `Cc1nonc1CC(=O)Nc1ccc(CC2CC[C@H]([C@H](O)c3cccnc3)N2)cc1` (stereo partly shown) [Example 68], the EC50 fell in the range of 11 to 100 nM.
The result for `CC1=NN(CC(=O)Nc2ccc(CC3CC[C@H]([C@H](O)c4cccnc4)N3)cc2)C(=O)C1C` (stereo partly shown) [Example 69] reads 11 to 100 nM; that for `CC1=NN(CC(=O)Nc2ccc(CC3CC[C@H]([C@H](O)c4cccnc4)N3)cc2)C(=O)C1` (stereo partly shown) [Example 70], 11 to 100 nM; that for `O=C(CC1NC(=O)NC1=O)Nc1ccc(CC2CC[C@H]([C@H](O)c3cccnc3)N2)cc1` (stereo partly shown) [Example 71], 101 to 1000 nM.
Regarding `O=C(CC1NC(=S)N(c2ccccc2)C1=O)Nc1ccc(CC2CC[C@H]([C@H](O)c3cccnc3)N2)cc1` (stereo partly shown) [Example 72], the EC50 lay within 11 to 100 nM.
The result for `O=C(Cc1n[nH]c(=O)[nH]1)Nc1ccc(CC2CC[C@H]([C@H](O)c3cccnc3)N2)cc1` (stereo partly shown) [Example 73] reads 11 to 100 nM.
The result for `O=C(Cc1csc(=S)[nH]1)Nc1ccc(CC2CC[C@H]([C@H](O)c3cccnc3)N2)cc1` (stereo partly shown) [Example 74] reads 11 to 100 nM; that for `O=C(Cn1cnc2ccsc2c1=O)Nc1ccc(CC2CC[C@H]([C@H](O)c3cccnc3)N2)cc1` (stereo partly shown) [Example 75], 1 to 10 nM; that for `Cn1ncc2ncn(CC(=O)Nc3ccc(CC4CC[C@H]([C@H](O)c5cccnc5)N4)cc3)c(=O)c21` (stereo partly shown) [Example 76], 1 to 10 nM.
The result for `O=C(Cc1ccccc1F)Nc1ccc(CC2CC[C@H]([C@H](O)c3cccnc3)N2)cc1` (stereo partly shown) [Example 77] reads 11 to 100 nM; that for `O=C(Cc1c(F)cccc1F)Nc1ccc(CC2CC[C@H]([C@H](O)c3cccnc3)N2)cc1` (stereo partly shown) [Example 78], 1 to 10 nM.

Source of the values: patent US8501786B2, “Hydroxymethyl pyrrolidines as beta 3 adrenergic receptor agonists” (Merck Sharp & Dohme Corp., priority 2009, dated 2013).
